Source: BindingDB's records for doi:10.1016/s0960-894x(01)00313-4 (Cor Therapeutics, 2001)

These molecules were tested against P2Y purinoceptor 12 (Homo sapiens, UniProt Q9H244) (assay: ChEBML_162514).
From the text: Ability to displace [3H]2-MeS-ADP from human Purinergic receptor P2Y12

Chain of P2Y purinoceptor 12 (Q9H244 whole entry): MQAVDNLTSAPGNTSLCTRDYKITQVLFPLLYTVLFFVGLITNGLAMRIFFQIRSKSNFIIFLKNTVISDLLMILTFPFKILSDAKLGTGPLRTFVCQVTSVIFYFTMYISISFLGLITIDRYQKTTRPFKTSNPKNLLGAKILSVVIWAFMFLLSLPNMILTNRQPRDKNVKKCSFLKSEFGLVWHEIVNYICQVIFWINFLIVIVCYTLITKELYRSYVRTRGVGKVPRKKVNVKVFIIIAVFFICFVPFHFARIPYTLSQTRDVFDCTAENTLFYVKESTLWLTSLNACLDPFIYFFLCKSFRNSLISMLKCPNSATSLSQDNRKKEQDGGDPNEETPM

O=C(CS(=O)(=O)Nc1nc2ccc(Oc3ccccc3)cc2s1)C1C(=O)N2C(=NS1(=O)=O)Sc1cc(Oc3ccccc3)ccc12 (stereo unspecified) [2-(4-Hydroxy-2,2-dioxo-7-phenoxy-2H-2lambda*6*,9-dithia-1,4a-diaza-fluoren-3-yl)-2-oxo-ethanesulfonic acid (6-phenoxy-benzothiazol-2-yl)-amide] and O=C(CS(=O)(=O)Nc1nc2ccc(-c3ccccc3)cc2s1)C1C(=O)N2C(=NS1(=O)=O)Sc1cc(-c3ccccc3)ccc12 (stereo unspecified) [2-(4-Hydroxy-2,2-dioxo-7-phenyl-2H-2lambda*6*,9-dithia-1,4a-diaza-fluoren-3-yl)-2-oxo-ethanesulfonic acid (6-phenyl-benzothiazol-2-yl)-amide] cannot be ordered by IC50: > 50 µM for the first, > 50 µM for the second.

Compared with O=C1CS(=O)(=O)N=C2Sc3cc(OC(F)(F)F)ccc3N12 [2,2-Dioxo-7-trifluoromethoxy-2H-2lambda*6*,9-dithia-1,4a-diaza-fluoren-4-ol], O=C(CS(=O)(=O)Nc1nc2ccc(Cl)cc2s1)C1C(=O)N2C(=NS1(=O)=O)Sc1cc(Cl)ccc12 (stereo unspecified) [2-(7-Chloro-4-hydroxy-2,2-dioxo-2H-2lambda*6*,9-dithia-1,4a-diaza-fluoren-3-yl)-2-oxo-ethanesulfonic acid (6-chloro-benzothiazol-2-yl)-amide] is lower in IC50: > 120 µM for the first, 35 µM for the second. The second is the more potent here.

Compared with O=C(CS(=O)(=O)Nc1nc2ccc([N+](=O)[O-])cc2s1)C1=C([O-])[n+]2c(sc3cc([N+](=O)[O-])ccc32)NS1(=O)=O [2-(4-Hydroxy-7-nitro-2,2-dioxo-2H-2lambda*6*,9-dithia-1,4a-diaza-fluoren-3-yl)-2-oxo-ethanesulfonic acid (6-nitro-benzothiazol-2-yl)-amide], O=C(CS(=O)(=O)Nc1nc2ccc(C3CCCCC3)cc2s1)C1C(=O)N2C(=NS1(=O)=O)Sc1cc(C3CCCCC3)ccc12 (stereo unspecified) [2-(7-Cyclohexyl-4-hydroxy-2,2-dioxo-2H-2lambda*6*,9-dithia-1,4a-diaza-fluoren-3-yl)-2-oxo-ethanesulfonic acid (6-cyclohexyl-benzothiazol-2-yl)-amide] is higher in IC50: 35 µM for the first, > 120 µM for the second. The first is the more potent here.
